Test results as given in patent US6770799B2, “Expression of recombinant human acetylcholinesterase in transgenic plants” (priority 2000, dated 2004).

Tests used:
[1] = molecular target: T1, plant derived recombinant AChE (rAChE) (Homo sapiens, UniProt P22303); assay: Inhibition of plant-derived recombinant AChE (Ellman assay); format: biochemical; settings: for inhibition of plant derived rAChE: 1 mM acetylthiocholine
T1 construct: We expressed the engineered AChE-E4 form, encoded by exons 2-4 of the human gene; made in house; host or cells: transgenic tomato (Lycopersicum esculentum cv. Micro-Tom), cleared leaf extracts

[2] = molecular target: T2, human AChE derived from erythrocytes (Homo sapiens, UniProt P22303); assay: Inhibition of AChE from human erythrocytes (Ellman assay); format: biochemical
T2 construct: a commercially available preparation of AChE from human erythrocytes; purchased; host or cells: human erythrocytes

[3] = Heat and storage stability of AChE activity in crude leaf extracts; format: physicochemical
Description: To evaluate the heat stability of the enzyme, plant extracts were incubated for 30 minutes at the indicated temperatures and then assayed as described above. Stability of the enzymatic activity was determined at 4 degrees C. and at 25 degrees C. by incubating plant extracts at the respective temperatures and assaying samples at the indicated time points.
The plant-derived hAChE in total soluble protein extracts retained 50% of its initial activity after incubation at 42 degrees for at least 30 minutes (FIG. 5A). Crude leaf extracts were incubated at the indicated temperatures for 30 minutes and then subjected to Ellman's AChE assay. […] The activity was very stable at 4 degrees C., with only 20% loss after 24 hours (FIG. 5B). Crude leaf extracts were incubated at 4 degrees C. or at 25 degrees C. for the indicated time periods and then assayed for AChE activity.

[4] = Km determination of plant-derived hAChE (Ellman assay, Lineweaver-Burk analysis); format: biochemical; settings: acetylthiocholine 0.05-50 mM; four expressing lines
Description: Scaled-down microtiter plate Ellman assays were performed, according to standard methods, which are well known in the art. […] At the end of the 30 minute incubation period, 100 μl of 1 mM 5-5′-dithio-bis(2-nitrobenzoate) (Ellman's reagent) and 2 mM acetylthiocholine in assay buffer was added. Hydrolysis was monitored by measuring optical density at 405 nm at 5 minute intervals for 30 minutes, using a microtiter plate spectrophotometer, plotted against time, and initial rates were calculated from the slope of the linear portion of the graph. Net hydrolysis rates were calculated by subtracting the rates measured in the presence of BW284c15 from those obtained in its absence. To determine the Km, the concentration of the acetylthiocholine substrate in the Ellman's reagent was varied in the range of 0.05-50 mM.

T2 sequence (P22303 32-617 isoform P22303-2 limits assumed): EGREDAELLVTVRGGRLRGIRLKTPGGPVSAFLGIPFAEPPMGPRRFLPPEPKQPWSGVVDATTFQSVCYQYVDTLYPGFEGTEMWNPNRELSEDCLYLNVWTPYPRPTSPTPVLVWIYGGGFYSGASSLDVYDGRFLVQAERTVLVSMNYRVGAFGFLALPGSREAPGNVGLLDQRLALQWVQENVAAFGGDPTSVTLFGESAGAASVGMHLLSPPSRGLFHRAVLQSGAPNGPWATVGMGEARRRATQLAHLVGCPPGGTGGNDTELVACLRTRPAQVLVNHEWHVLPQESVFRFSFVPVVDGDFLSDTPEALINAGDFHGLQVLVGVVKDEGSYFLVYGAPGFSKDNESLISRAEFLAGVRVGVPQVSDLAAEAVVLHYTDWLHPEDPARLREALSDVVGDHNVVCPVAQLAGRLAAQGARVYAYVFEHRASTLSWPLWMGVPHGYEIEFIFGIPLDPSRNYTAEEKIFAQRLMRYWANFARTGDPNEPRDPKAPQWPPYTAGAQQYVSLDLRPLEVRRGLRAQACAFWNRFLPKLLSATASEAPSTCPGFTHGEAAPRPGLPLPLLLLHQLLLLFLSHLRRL

## CCOP(=O)(OCC)Oc1ccc([N+](=O)[O-])cc1 [paraoxon, diethyl p-nitrophenyl phosphate]
[1]
  susceptibility of plant-derived E4 enzyme relative to equivalent recombinant enzyme from transgenic mice: somewhat less susceptible
  inhibition of plant derived rAChE: can inhibit

## O=S(=O)(F)Cc1ccccc1 [PMSF, phehylmethylsulfonyl fluoride]
[1]
  inhibition of plant derived rAChE: can inhibit

## CC(C)NP(=O)(NC(C)C)OP(=O)(NC(C)C)NC(C)C [Iso-OMPA, tetraisopropyl pyrophosphoramide]
[1]; at 10 mM
  inhibition of plant-derived enzyme: only partial inhibition
[1]; up to 100 μM
  effect on plant-derived enzyme: no effect
[2]; at 10 mM
  inhibition of erythrocyte-derived enzyme: only partial inhibition
[2]; up to 100 μM
  effect on erythrocyte-derived enzyme: no effect

## CN(C)C(=O)Oc1cccc([N+](C)(C)C)c1 [neostigmine]
[1]
  inhibition of plant derived rAChE: can inhibit

B1: plant-derived hAChE (protein, UniProt P22303 32-614, looked up)
Acetylcholinesterase: EGREDAELLVTVRGGRLRGIRLKTPGGPVSAFLGIPFAEPPMGPRRFLPPEPKQPWSGVVDATTFQSVCYQYVDTLYPGFEGTEMWNPNRELSEDCLYLNVWTPYPRPTSPTPVLVWIYGGGFYSGASSLDVYDGRFLVQAERTVLVSMNYRVGAFGFLALPGSREAPGNVGLLDQRLALQWVQENVAAFGGDPTSVTLFGESAGAASVGMHLLSPPSRGLFHRAVLQSGAPNGPWATVGMGEARRRATQLAHLVGCPPGGTGGNDTELVACLRTRPAQVLVNHEWHVLPQESVFRFSFVPVVDGDFLSDTPEALINAGDFHGLQVLVGVVKDEGSYFLVYGAPGFSKDNESLISRAEFLAGVRVGVPQVSDLAAEAVVLHYTDWLHPEDPARLREALSDVVGDHNVVCPVAQLAGRLAAQGARVYAYVFEHRASTLSWPLWMGVPHGYEIEFIFGIPLDPSRNYTAEEKIFAQRLMRYWANFARTGDPNEPRDPKAPQWPPYTAGAQQYVSLDLRPLEVRRGLRAQACAFWNRFLPKLLSATDTLDEAERQWKAEFHRWSSYMVHWKNQFDHYSKQDRCSDL
modifications: plant-expressed
[3]; 4 degrees C., after 24 hours
  loss of AChE activity: 20%
[3]; 42 degrees, at least 30 minutes, total soluble protein extract
  initial activity retained: 50%
[3]; room temperature (~25 degrees C.), after 25 hours
  residual AChE activity: 20%
[4]
  Km: 440 ± 100 µM
